The results in this text go back to PMC12501029, “Discovery of a CNS active GSK3 degrader using orthogonally reactive linker screening” (Nature Communications, 2025).

The nature of data set [1]: RealSOL kinetic solubility. The class given is physicochemical. To be noted: PBS pH 7.4, 24 h, 25 °C; for solubility kinetic at 24 h: phosphate buffered saline, aqueous buffer, kinetic from dmso stock. Here is the method:
Solubility was assessed using an 'in-house' developed method known as 'RealSOL'. This solubility method measures the solubility in physiological strength phosphate buffered saline starting from 10 mM DMSO solutions of the test compounds. Although a 'kinetic'^[1] solubility method, the long shaking times appears to give solubility values that reflect more closely those made from solid samples when compared to a previous nephelometric method (unpublished in-house data).
Test compounds were dissolved in DMSO to give 10 mM solutions. Solubility test samples were prepared by adding a volume (5 µL) of the 10 mM solution to a volume (195 µL) of phosphate buffered saline, pH 7.4 (Sigma-Aldrich, Cat no. P4417, made as per manufacturer’s instructions). This solution was then mixed for 24 h (rotary mixing, 900 rpm, 25 °C) excluding light.
After mixing, the solubility test samples were filtered to remove any undissolved material using a proprietary filter (Millipore Multiscreen HTS filter, 96-well format). Samples were drawn through the filter using a vacuum.
The filtrate from the above was analysed for dissolved drug compound using a truncated UHPLC methodology. A Shimadzu Nexera X2 UHPLC system was used, with a reversed-phase column and a simple formic acid gradient elution. The UHPLC parameters are shown in Supporting Information Table 5.
A calibration solution was prepared in the following way: the same 10 mM solution used to prepare the solubility test sample was diluted in DMSO to give a 500 µM solution. This solution was then again diluted with 50:50 acetonitrile: water to give a 50 µM solution. Aliquots (0.2, 2.0 and 5.0 µL) of this 50 µM solution were then injected onto the UHPLC system and the areas of the resultant peaks integrated to produce a calibration line. Aliquots of the test sample filtrate (0.4 and 5.0 µL) were then injected onto the UHPLC system and the resultant peak areas for any peaks corresponding to the test compound determined and quantified using the calibration line (the injection volume that gave a peak area closest to the calibrated range was used for determining solubility).

A short description of data set [2]: Cassette PK study with 22, 25 and 26. The class given is in vivo, female Balb/c mice. The note with it: i.v. bolus cassette 0.5 mg/kg; for AUC(0-t) / clearance: female, Balb/c, mouse, iv, whole blood; for clearance: read-out: Cl_obs. The source says:
Fifteen female mice of the Balb/c strain were obtained from Charles River Laboratories, UK. Animals were maintained under a 12-h light/12-h dark cycle, in Thoren mouse caging containing EC0 aspen bedding (DBM, UK), with 'Sizzlenest' and 'Rodent Rolls' nesting material (DBM). Enrichment materials included aspen chew sticks, cardboard houses, tunnels, swings, and sunflower seeds. All animals had ad libitum access to food (5LF2 Extruded Diet, IPS Ltd, UK) and tap water throughout. Temperature and relative humidity were maintained between 19 °C–24 °C and 45%–65%, respectively. All animals received a minimum of 10 days of acclimatisation prior to the start of the study.
The cassette formulation (22, 25 and 26) was prepared by producing separate stock solutions of each compound dissolved in DMSO (dimethyl sulfoxide) at a concentration of 6 mg/mL. Aliquots of each stock solution were combined in equal parts to produce a stock solution containing 2 mg/mL of each compound. This solution was then diluted with Polyethylene glycol 400 (PEG400), followed by drop-wise addition of sterile water. The final formulation consisted of 5% DMSO, 40% PEG400, and 55% water, and contained 0.1 mg/mL of each compound. For the cassette PK study, three female Balb/c mice were dosed via a bolus intravenous injection at a dose level of 0.5 mg/kg per compound (5 mL/kg). Serial blood samples (10 µL per sample) were collected from the lateral tail vein of each mouse at 5, 15 and 30 min, 1, 2, 4, 6, 8, and 24 h after dose administration. All blood samples were diluted into 90 µL of Milli‑Q ultrapure water and stored at −20 °C prior to bioanalysis. The concentration of 22, 25 and 26 in blood and brain was determined by UPLC-MS/MS.
Blood samples (10 µL) from study mice were diluted 1× with 90 µL of water immediately when the sample was taken. All calibration, quality control, blanks and double blank samples (all 100 µL volume) were mixed (vortexed) with 300 µL of LCMS grade acetonitrile to precipitate proteins.
For study samples, a volume (30 µL) was mixed (vortexed) with a volume (90 µL) of acetonitrile to precipitate proteins. After protein precipitation, all samples were centrifuged to pellet the proteins. Study samples in Micronics tubes were centrifuged using a Beckman Coutler Allegra C-12R Centrifuge for 10 min at 3750 rpm. All other samples in Eppendorf tubes were centrifuged using a Sigma SciQuip 1–14 centrifuge for 10 min (14,800 rpm/16,163 × g). Supernatant from study samples (80 µL) and calibration samples, QCs, blanks, and double blanks (200 µL) were then transferred to HPLC glass vials containing Milli-Q water (40 µL or 100 µL, respectively), ready for LCMS analysis.

Data set [3] in a line: Plasma protein binding, equilibrium dialysis, human. The class given is in vitro ADME. To be noted: 5 h dialysis, read-out: Plasma Protein Binding (Fu) Hu. As for the experimental part: A 96-well equilibrium dialysis apparatus was used to determine the free fraction in plasma for each compound (HT Dialysis LLC, Gales Ferry, CT). Membranes (12–14 kDA cut-off) were conditioned in deionised water for 60 min, followed by conditioning in 80:20 deionised water: ethanol for 20 min, and then rinsed in isotonic buffer before use. Female CD1 mouse, Male rat Han Wistar and human plasma was removed from the freezer and allowed to thaw on the day of experiment. Thawed plasma was then centrifuged (Allegra X12-R, Beckman Coulter, USA), spiked with test compound (final concentration 10 μg/mL), and 150 μL aliquots (n = 6 replicate determinations) loaded into the 96-well equilibrium dialysis plate. Dialysis vs isotonic buffer (150 μL) was carried out for 5 h in a temperature-controlled incubator at ca. 37 °C (Barworld Scientific Ltd, UK) using an orbital microplate shaker at 100 revolutions/minute (Barworld Scientific Ltd, UK). At the end of the incubation period, 50 μL aliquots of plasma or buffer were transferred to a 96-well 2.1 mL Waters ^TM plate and the composition in each well balanced with control fluid (50 μL), such that the volume of buffer to plasma is the same. […] All samples were analysed by UPLC-MS/MS. The unbound fraction was determined as the ratio of the peak area in buffer to that in plasma.
On the technique in general: In equilibrium dialysis only unbound substance equilibrates across the membrane.

Values after ≈ are worked out from the molar mass of the structure shown. A value given as a limit tells only on which side of the number the result lay.

Take `O=C1CCC(NC(=O)c2ccc(CN3CCN(Cc4ccc(-c5cn(-c6ccc(-c7cn8nccc(C(=O)Nc9cnccc9N9CCOCC9)c8n7)cc6)nn5)nc4)CC3)cn2)C(=O)N1` (centres unmarked) [compound 22]: in data set [1], the solubility (kinetic) at 24 h was under 1 µM. Further, in data set [2], the AUC(0-t) was 444 ng·h/mL, the clearance was determined as 12 mL/min/kg, the Cl_obs result is “moderate” and the Half_Life is on record as 2.8 h. This compound came in with a Vss_obs in data set [2] of 2.8 L/kg.

`Cn1nc(N2CCC(=O)NC2=O)c2ccc(CN3CCN(Cc4ccc(-c5cn(-c6ccc(-c7cn8nccc(C(=O)Nc9cnccc9N9CCOCC9)c8n7)cc6)nn5)nc4)CC3)cc21` [compound 24]: in data set [1], the RealSol entry is recorded as “low micromolar range” and the kinetic solubility at 24 h was found to be 2.7 µM (≈ 2.43 µg/mL). In data set [3], the fraction unbound at 5 h, 10 μg/mL was determined as 0.0072.

For the compound `Cn1nc(N2CCC(=O)NC2=O)c2ccc(CN3CCN(CCCc4cn(-c5ccc(-c6cn7nccc(C(=O)Nc8cnccc8N8CCOCC8)c7n6)cc5)nn4)CC3)cc21` [compound 26], in data set [1], the RealSol result was “low micromolar range” and the solubility (kinetic) at 24 h turned out to be 2.3 µM (≈ 1.95 µg/mL). The fraction unbound at 5 h, 10 μg/mL in data set [3] was determined as 0.05. Further, in data set [2], the AUC(0-t) was 590 ng·h/mL, the clearance came to 8 mL/min/kg, the Cl_obs result was “moderate” and the Half_Life is on record as 2.7 h. In data set [2], this compound displayed a Vss_obs of 1.9 L/kg.

One may read the solubility (kinetic) as solubility judged after dilution from a stock solution rather than from solid. What is called AUC(0-t) is exposure summed from dosing to a finite time, without extrapolation to infinity.
